Experimental data from patent US20260176320A1, “MODULATORS OF G-PROTEIN COUPLED RECEPTORS” (priority 2018, published 2026).
Like-named read-outs stand apart in the source and are kept apart here.

Assays:
GIP-R = target: T1, GIP-R (Homo sapiens, UniProt P48546); test: HitHunter cAMP assay (GIP-R); format: cell-based; details: cAMP; for Emax at 1 µM: read-out: (Emax) GIP-R at 1 μM, Table 3; for Emax: read-out: (Emax) GIP-R
T1 sequence (P48546 22-466): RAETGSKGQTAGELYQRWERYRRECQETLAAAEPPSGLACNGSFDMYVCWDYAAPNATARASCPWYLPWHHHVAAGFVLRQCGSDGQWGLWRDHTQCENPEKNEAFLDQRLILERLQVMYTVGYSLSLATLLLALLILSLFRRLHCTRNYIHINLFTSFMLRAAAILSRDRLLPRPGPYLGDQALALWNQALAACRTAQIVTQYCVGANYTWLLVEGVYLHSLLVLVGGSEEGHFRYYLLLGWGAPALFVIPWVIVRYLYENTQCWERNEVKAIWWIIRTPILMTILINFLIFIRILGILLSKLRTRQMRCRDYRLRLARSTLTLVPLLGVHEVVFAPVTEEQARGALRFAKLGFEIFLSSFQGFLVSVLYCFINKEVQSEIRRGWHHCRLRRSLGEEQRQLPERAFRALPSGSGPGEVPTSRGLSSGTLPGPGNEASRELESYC
Procedure, shortened: (§1)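 Cells were resuspended in HBSS plus HEPES, IBMX (625 μM) and BSA, then dispensed with antibody at 10,000 per well. Agonists followed as 22-point twofold series, 30 min at room temperature. Antibody reagent and detection steps ran 1 h and overnight in the dark before luminescence.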

GLP-1R = GLP-1R (Homo sapiens, UniProt P43220); test: HitHunter cAMP assay (GLP-1R); format: cell-based; details: cAMP; for Emax: read-out: (Emax) GLP-1R
Chain of GLP-1R (P43220 24-463): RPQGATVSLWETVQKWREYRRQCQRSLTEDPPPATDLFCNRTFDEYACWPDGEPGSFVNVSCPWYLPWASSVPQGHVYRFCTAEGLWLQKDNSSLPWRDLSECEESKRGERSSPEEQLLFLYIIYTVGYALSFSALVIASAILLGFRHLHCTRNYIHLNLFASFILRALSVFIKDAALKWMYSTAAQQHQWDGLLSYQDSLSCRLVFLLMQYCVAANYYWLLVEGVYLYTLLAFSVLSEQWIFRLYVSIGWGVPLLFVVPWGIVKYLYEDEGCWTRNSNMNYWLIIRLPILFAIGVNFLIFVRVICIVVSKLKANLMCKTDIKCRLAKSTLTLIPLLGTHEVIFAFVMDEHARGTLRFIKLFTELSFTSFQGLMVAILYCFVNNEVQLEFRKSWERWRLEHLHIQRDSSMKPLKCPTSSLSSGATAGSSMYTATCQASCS
Procedure, shortened: as §1

[1] = read-out: EC50 GIP-R/nM, Table 3A
[2] = Table 3, read-out: EC50 GIP-R/nM
[3] = Table 3A, read-out: EC50 GIP-R/nM
[4] = Table 3, read-out: EC50 GLP-1R/nM
[5] = Table 3A, read-out: EC50 GLP-1R/nM

SMILES | EC50 (GIP-R; EC50 GIP-R/nM, Table 3) [nM] | Emax at 1 µM (GIP-R) [%] | EC50 (GIP-R; [1]) [nM] | EC50 (GLP-1R; EC50 GLP-1R/nM, Table 3) [nM] | EC50 (GLP-1R; EC50 GLP-1R/nM, Table 3A) [nM] | Emax (GLP-1R; Table 3) [%] | Emax (GLP-1R; Table 3A) [%] | Emax (GIP-R; Table 3) [%] | EC50 (GIP-R; [2]) [nM] | EC50 (GIP-R; [3]) [nM] | EC50 (GLP-1R; [4]) [nM] | EC50 (GLP-1R; [5]) [nM] | Emax (GIP-R; Table 3A) [%]
CC[C@H](C)[C@H](NC(=O)[C@H](CO)NC(=O)[C@H](Cc1ccc(O)cc1)NC(=O)[C@H](CC(=O)O)NC(=O)[C@H](CO)NC(=O)[C@@H](NC(=O)[C@H](Cc1ccccc1)NC(=O)[C@@H](NC(=O)CNC(=O)[C@H](CCC(=O)O)NC(=O)C1(C(=O)NCCN2C(=O)CSC2=O)Cc2ccccc2C1)[C@@H](C)O)[C@@H](C)O)C(=O)N[C@@H](Cc1ccc(O)cc1)C(=O)N[C@@H](CC(C)C)C(=O)N[C@@H](CC(=O)O)C(=O)N[C@@H](CCCCN)C(=O)N[C@@H](CCC(N)=O)C(=O)N[C@@H](C)C(=O)N[C@@H](C)C(=O)NC(C)(C)C(=O)N[C@@H](CCC(=O)O)C(=O)N[C@@H](Cc1ccccc1)C(=O)N[C@H](C(=O)N[C@@H](CC(N)=O)C(=O)N[C@@H](Cc1c[nH]c2ccccc12)C(=O)N[C@@H](CC(C)C)C(=O)N[C@@H](CC(C)C)C(=O)N[C@@H](C)C(=O)NCC(=O)NCC(=O)N1CCC[C@H]1C(=O)N[C@@H](CO)C(=O)N[C@@H](CO)C(=O)NCC(=O)N[C@@H](C)C(=O)N1CCC[C@H]1C(=O)N1CCC[C@H]1C(=O)N1CCC[C@H]1C(=O)N[C@@H](CO)C(=O)N[C@@H](CCCCN)C(N)=O)C(C)C [Compound 124] | > 1000 | 10 | > 1000 | 10 to 100 | 10 to 100 | 73 | 73 |  |  |  |  |  | 
CC[C@H](C)[C@H](NC(=O)[C@H](CO)NC(=O)[C@H](Cc1ccc(O)cc1)NC(=O)[C@H](CC(=O)O)NC(=O)[C@H](CO)NC(=O)[C@@H](NC(=O)[C@H](Cc1ccccc1)NC(=O)[C@@H](NC(=O)CNC(=O)[C@H](CCC(=O)O)NC(=O)C(C)(C)C(=O)O)[C@@H](C)O)[C@@H](C)O)C(=O)N[C@@H](Cc1ccc(O)cc1)C(=O)N[C@@H](CC(C)C)C(=O)N[C@@H](CC(=O)O)C(=O)N[C@@H](CCCCN)C(=O)N[C@@H](CCC(N)=O)C(=O)N[C@@H](C)C(=O)N[C@@H](C)C(=O)NC(C)(C)C(=O)N[C@@H](CCC(=O)O)C(=O)N[C@@H](Cc1ccccc1)C(=O)N[C@H](C(=O)N[C@@H](CC(N)=O)C(=O)N[C@@H](Cc1c[nH]c2ccccc12)C(=O)N[C@@H](CC(C)C)C(=O)N[C@@H](CC(C)C)C(=O)N[C@@H](C)C(=O)NCC(=O)NCC(=O)N1CCC[C@H]1C(=O)N[C@@H](CO)C(=O)N[C@@H](CO)C(=O)NCC(=O)N[C@@H](C)C(=O)N1CCC[C@H]1C(=O)N1CCC[C@H]1C(=O)N1CCC[C@H]1C(=O)N[C@@H](CO)C(=O)N[C@@H](CCCCN)C(N)=O)C(C)C [Compound 131] |  |  |  |  |  | 95 | 95 | 3.2 | > 1000 | > 1000 | 1 to 10 | 1 to 10 | 
CCCCCCCCCCCCCCCC(=O)N[C@@H](CCC(=O)NCCCC[C@H](NC(=O)[C@H](CO)NC(=O)[C@@H]1CCCN1C(=O)[C@@H]1CCCN1C(=O)[C@@H]1CCCN1C(=O)[C@H](C)NC(=O)CNC(=O)[C@H](CO)NC(=O)[C@H](CO)NC(=O)[C@@H]1CCCN1C(=O)CNC(=O)CNC(=O)[C@H](C)NC(=O)[C@H](CC(C)C)NC(=O)[C@H](CC(C)C)NC(=O)[C@H](Cc1c[nH]c2ccccc12)NC(=O)[C@H](CC(N)=O)NC(=O)[C@@H](NC(=O)[C@H](Cc1ccccc1)NC(=O)[C@H](CCC(=O)O)NC(=O)C(C)(C)NC(=O)[C@H](C)NC(=O)[C@H](C)NC(=O)[C@H](CCC(N)=O)NC(=O)[C@H](CCCCN)NC(=O)[C@H](CC(=O)O)NC(=O)[C@H](CC(C)C)NC(=O)[C@H](Cc1ccc(O)cc1)NC(=O)[C@@H](NC(=O)[C@H](CO)NC(=O)[C@H](Cc1ccc(O)cc1)NC(=O)[C@H](CC(=O)O)NC(=O)[C@H](CO)NC(=O)[C@@H](NC(=O)[C@H](Cc1ccccc1)NC(=O)[C@@H](NC(=O)CNC(=O)[C@H](CCC(=O)O)NC(=O)CSCC(=O)NCCN1NCCC1=O)[C@@H](C)O)[C@@H](C)O)[C@@H](C)CC)C(C)C)C(N)=O)C(=O)O [Compound 58] |  |  |  |  |  | 108 | 108 | 26 | 1 to 10 | 10 to 100 | 0.1 to 1 | 0.1 to 1 | 26
CCCCCCCCCCCCCCCC(=O)N[C@@H](CCC(=O)NCCCC[C@H](NC(=O)[C@H](CO)NC(=O)[C@@H]1CCCN1C(=O)[C@@H]1CCCN1C(=O)[C@@H]1CCCN1C(=O)[C@H](C)NC(=O)CNC(=O)[C@H](CO)NC(=O)[C@H](CO)NC(=O)[C@@H]1CCCN1C(=O)CNC(=O)CNC(=O)[C@H](C)NC(=O)[C@H](CC(C)C)NC(=O)[C@H](CC(C)C)NC(=O)[C@H](Cc1c[nH]c2ccccc12)NC(=O)[C@H](CC(N)=O)NC(=O)[C@@H](NC(=O)[C@H](Cc1ccccc1)NC(=O)[C@H](CCC(=O)O)NC(=O)C(C)(C)NC(=O)[C@H](C)NC(=O)[C@H](C)NC(=O)[C@H](CCC(N)=O)NC(=O)[C@H](CCCCN)NC(=O)[C@H](CC(=O)O)NC(=O)[C@H](CC(C)C)NC(=O)[C@H](Cc1ccc(O)cc1)NC(=O)[C@@H](NC(=O)[C@H](CO)NC(=O)[C@H](Cc1ccc(O)cc1)NC(=O)[C@H](CC(=O)O)NC(=O)[C@H](CO)NC(=O)[C@@H](NC(=O)[C@H](Cc1ccccc1)NC(=O)[C@@H](NC(=O)CNC(=O)[C@H](CCC(=O)O)NC(=O)CSCC(=O)NCCN1C(=O)c2cccc3cccc(c23)C1=O)[C@@H](C)O)[C@@H](C)O)[C@@H](C)CC)C(C)C)C(N)=O)C(=O)O [Compound 248] |  |  |  |  |  |  | 80 |  |  | 1 to 10 |  | 10 to 100 | 105
CCCCCCCCCCCCCCCC(=O)N[C@@H](CCC(=O)NCCCC[C@H](NC(=O)[C@H](CO)NC(=O)[C@@H]1CCCN1C(=O)[C@@H]1CCCN1C(=O)[C@@H]1CCCN1C(=O)[C@H](C)NC(=O)CNC(=O)[C@H](CO)NC(=O)[C@H](CO)NC(=O)[C@@H]1CCCN1C(=O)CNC(=O)CNC(=O)[C@H](C)NC(=O)[C@H](CC(C)C)NC(=O)[C@H](CC(C)C)NC(=O)[C@H](Cc1c[nH]c2ccccc12)NC(=O)[C@H](CC(N)=O)NC(=O)[C@@H](NC(=O)[C@H](Cc1ccccc1)NC(=O)[C@H](CCC(=O)O)NC(=O)C(C)(C)NC(=O)[C@H](C)NC(=O)[C@H](C)NC(=O)[C@H](CCC(N)=O)NC(=O)[C@H](CCCCN)NC(=O)[C@H](CC(=O)O)NC(=O)[C@H](CC(C)C)NC(=O)[C@H](Cc1ccc(O)cc1)NC(=O)[C@@H](NC(=O)[C@H](CO)NC(=O)[C@H](Cc1ccc(O)cc1)NC(=O)[C@H](CC(=O)O)NC(=O)[C@H](CO)NC(=O)[C@@H](NC(=O)[C@H](Cc1ccccc1)NC(=O)[C@@H](NC(=O)CNC(=O)[C@H](CCC(=O)O)NC(=O)CSCC(=O)NCCN1C(=O)CC(c2ccccc2)C1=O)[C@@H](C)O)[C@@H](C)O)[C@@H](C)CC)C(C)C)C(N)=O)C(=O)O (mixture of isomers) [Compound 99] | > 1000 | 11 | > 1000 | 1 to 10 | 1 to 10 | 102 | 102 |  |  |  |  |  | 
CCCCCCCCCCCCCCCC(=O)N[C@@H](CCC(=O)NCCCC[C@H](NC(=O)[C@H](CO)NC(=O)[C@@H]1CCCN1C(=O)[C@@H]1CCCN1C(=O)[C@@H]1CCCN1C(=O)[C@H](C)NC(=O)CNC(=O)[C@H](CO)NC(=O)[C@H](CO)NC(=O)[C@@H]1CCCN1C(=O)CNC(=O)CNC(=O)[C@H](C)NC(=O)[C@H](CC(C)C)NC(=O)[C@H](CC(C)C)NC(=O)[C@H](Cc1c[nH]c2ccccc12)NC(=O)[C@H](CC(N)=O)NC(=O)[C@@H](NC(=O)[C@H](Cc1ccccc1)NC(=O)[C@H](CCC(=O)O)NC(=O)C(C)(C)NC(=O)[C@H](C)NC(=O)[C@H](C)NC(=O)[C@H](CCC(N)=O)NC(=O)[C@H](CCCCN)NC(=O)[C@H](CC(=O)O)NC(=O)[C@H](CC(C)C)NC(=O)[C@H](Cc1ccc(O)cc1)NC(=O)[C@@H](NC(=O)[C@H](CO)NC(=O)[C@H](Cc1ccc(O)cc1)NC(=O)[C@H](CC(=O)O)NC(=O)[C@H](CO)NC(=O)[C@@H](NC(=O)[C@H](Cc1ccccc1)NC(=O)[C@@H](NC(=O)CNC(=O)[C@H](CCC(=O)O)NC(=O)CCNC(=O)CCCN1C(=O)c2ccccc2C1=O)[C@@H](C)O)[C@@H](C)O)[C@@H](C)CC)C(C)C)C(N)=O)C(=O)O [Compound 115] |  |  |  |  |  | 91 | 91 | 67 | 1 to 10 | 1 to 10 | 1 to 10 | 1 to 10 | 67
